{"source": "patent US9969732B2", "about": "“Tetrahydroisoquinoline estrogen receptor modulators and uses thereof” (Genentech, Inc., priority 2016, dated 2018)", "molecular_target": "T1, ER-alpha (WT) (Homo sapiens, UniProt P03372)", "T1 construct": "endogenous in cells; host or cells: MCF7 breast cancer cells", "T1 sequence (P03372 1-595)": "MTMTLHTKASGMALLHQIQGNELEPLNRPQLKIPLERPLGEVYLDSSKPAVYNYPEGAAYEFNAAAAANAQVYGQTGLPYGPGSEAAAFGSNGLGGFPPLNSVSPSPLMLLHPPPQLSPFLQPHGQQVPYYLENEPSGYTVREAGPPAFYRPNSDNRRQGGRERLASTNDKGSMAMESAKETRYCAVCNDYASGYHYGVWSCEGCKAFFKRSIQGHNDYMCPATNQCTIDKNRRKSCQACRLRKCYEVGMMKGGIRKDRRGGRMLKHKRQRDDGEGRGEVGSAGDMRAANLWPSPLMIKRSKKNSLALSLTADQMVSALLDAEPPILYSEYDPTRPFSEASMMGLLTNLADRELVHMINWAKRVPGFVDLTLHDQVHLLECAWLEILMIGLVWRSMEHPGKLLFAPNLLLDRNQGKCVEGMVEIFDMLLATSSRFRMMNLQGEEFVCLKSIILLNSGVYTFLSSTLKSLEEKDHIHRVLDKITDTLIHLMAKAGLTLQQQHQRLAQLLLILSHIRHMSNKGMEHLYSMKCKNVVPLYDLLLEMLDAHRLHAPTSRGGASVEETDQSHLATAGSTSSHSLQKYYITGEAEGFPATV", "experiment": "Breast Cancer Cell ERa High Content Fluorescence Imaging Degradation Assay (MCF7 HCS)", "format": "cell-based", "conditions": "MCF7 breast cancer cells, 4 hours incubation; for EC50: inflexion point of curve; for ERalpha (WT) MCF7 HCS (S inf): plateau of the maximal effect, DMSO and Fulvestrant define 0% and 100% changes in ESR1", "method": "MCF7 breast cancer cells were seeded on day 1 at a density of 10,000 cells per well in 384 well poly-lysine coated tissue culture plate (Greiner #T-3101-4), in 50 μL/well RPMI (phenol red free), 10% FBS (Charcoal stripped), containing L-glutamine. […] Compounds and controls were dispensed using a Labcyte Echo acoustic dispenser to dispense compounds with a predefined serial dilution (1.8×, 10 point, in duplicate) and appropriate backfill and control compounds (final total volume transferred was 417.5 nL and compound dispense volume ranges from 2.5 nL to 417.5 nL; 0.84% DMSO (v/v) final), ultimately producing a concentration range from 0.05 nM to 835 nM. Cell plates were incubated at 37° C., for 4 hours. Fixation and permeabilization were carried out using a Biotek EL406 plate washer and dispenser as follows. Cells were fixed by addition of 15 μL of 16% paraformaldehyde (Electron Microscopy Sciences #15710-S) directly to the 50 μL cell culture medium in each well using the peristaltic pump 5 μL cassette on a Biotek EL406 (final concentration of formaldehyde was 3.7% w/v). Samples were incubated 30 minutes. Well contents was aspirated and 50 μL/well of Phosphate Buffered Saline (PBS) containing 0.5% w/v bovine serum albumen, 0.5% v/v Triton X-100 (Antibody Dilution Buffer) was added to each well. Samples were incubated for 30 minutes. Well contents were aspirated and washed 3 times with 100 μL/well of PBS. Immunofluorescence staining of estrogen receptor alpha (ESR1) was carried out using a Biotek EL406 plate washer and dispenser as follows. The well supernatant was aspirated from the wells and 25 μL/well of anti-ESR1 mAb (F10) (Santa Cruz sc-8002) diluted 1:1000 in Antibody Dilution Buffer was dispensed. Samples were incubated for 2 hours at room temperature. Samples were washed 4 times with 100 μL/well of PBS. 25 μL (microliters)/well of secondary antibody solution (Alexafluor® 488 conjugate anti-mouse IgG (LifeTechnologies #A21202) diluted 1:1000 and Hoechst 33342 1 μg/mL diluted in Antibody Dilution Buffer) were dispensed into each well. Samples were incubated for 2 hours at room temperature. Samples were washed 3 times with 100 μL/well of PBS using a Biotek EL406. Quantitative fluorescence imaging of ESR1 was carried out using a Cellomics Arrayscan V® (Thermo). Fluorescence images of the samples (Channel 1: XF53 Hoechst (DNA stain); Channel 2: XF53 FITC (ESR1 stain)) were acquired using a Cellomics VTI Arrayscan using the Bioapplication “Compartmental Analysis” using the auto-exposure (based on DMSO control wells) setting “peak target percentile” set to 25% target saturation for both channels. Channel 1 (DNA stain) was used to define the nuclear region (Circ). Measurements of “Mean_CircAvgIntCh2”, which is the Alexafluor 488 fluorescence intensity (ESR1) within the nuclear region, was measured on a per cell basis and averaged over all the measured cells. Data analysis was carried out using Genedata Screener Software, with DMSO and 5 nM Fulvestrant treated samples being used to define the 0% and 100% changes in ESR1. The “Robust Fit” method was used to define the inflexion point of curve (EC50) and the plateau of the maximal effect (Sinf)."}
{"smiles": "Oc1ccc2c(c1)CCN(CC(F)(F)F)[C@@H]2c1c(F)cc(OCCN2CC(CF)C2)cc1F", "note": "[Example 134, (1S)-1-[2,6-difluoro-4-[2-[3-(fluoromethyl)azetidin-1-yl]ethoxy]phenyl]-2-(2,2,2-trifluoroethyl)-3,4-dihydro-1H-isoquinolin-6-ol]", "values": [{"measurement": "EC50", "result": 0.013, "unit": "nM"}, {"measurement": "ERalpha (WT) MCF7 HCS (S inf)", "result": "−98", "unit": "%"}]}
{"smiles": "C[C@H]1Cc2cc(C(=O)O)ccc2[C@H](c2ccc(OCCN3CC(CF)C3)cc2)N1CC(F)(F)F", "note": "(single isomer, unassigned) [Example 163]", "values": [{"measurement": "EC50", "result": 11, "unit": "nM"}, {"measurement": "ERalpha (WT) MCF7 HCS (S inf)", "result": "−92", "unit": "%"}]}
{"smiles": "C[C@@H]1CN(S(C)(=O)=O)[C@@H](c2ccc(OCCN3CC(CF)C3)cc2)c2ccc(O)cc21", "note": "(single isomer, unassigned) [Example 119]", "values": [{"measurement": "EC50", "result": "≥ 100", "unit": "nM"}]}
{"smiles": "C[C@H]1Cc2cc(O)ccc2[C@@H](c2ccc(OCCN3CC(CF)C3)cc2)N1S(C)(=O)=O", "note": "[Example 115, (1R,3S)-1-[4-[2-[3-(fluoromethyl)azetidin-1-yl]ethoxy]phenyl]-3-methyl-2-methylsulfonyl-3,4-dihydro-1H-isoquinolin-6-ol]", "values": [{"measurement": "EC50", "result": 61.4, "unit": "nM"}, {"measurement": "ERalpha (WT) MCF7 HCS (S inf)", "result": "−53", "unit": "%"}]}
{"smiles": "Oc1ccc2c(c1)CCN(c1ccccc1)C2c1ccc(OCCN2CC(CF)C2)cc1", "note": "(stereo not drawn) [Example 101, 1-[4-[2-[3-(fluoromethyl)azetidin-1-yl]ethoxy]phenyl]-2-phenyl-3,4-dihydro-1H-isoquinolin-6-ol]", "values": [{"measurement": "EC50", "result": 0.21, "unit": "nM"}, {"measurement": "ERalpha (WT) MCF7 HCS (S inf)", "result": "−99", "unit": "%"}]}
{"smiles": "C[C@@H]1CCN(CCOc2ccc([C@@]3(C)c4ccc(O)cc4CCN3CC(C)(C)F)cc2)C1", "note": "[Example 125, (S)-2-(2-fluoro-2-methylpropyl)-1-methyl-1-(4-(2-((R)-3-methylpyrrolidin-1-yl)ethoxy)phenyl)-1,2,3,4-tetrahydroisoquinolin-6-ol]", "values": [{"measurement": "EC50", "result": 7.4, "unit": "nM"}, {"measurement": "ERalpha (WT) MCF7 HCS (S inf)", "result": "−57", "unit": "%"}]}
{"smiles": "FCC1CN(CCOc2ccc([C@@H]3c4ccc(-c5cn[nH]c5)cc4CCN3CC(F)(F)F)cc2)C1", "note": "[Example 146, (1R)-1-[4-[2-[3-(fluoromethyl)azetidin-1-yl]ethoxy]phenyl]-6-(1H-pyrazol-4-yl)-2-(2,2,2-trifluoroethyl)-3,4-dihydro-1H-isoquinoline]", "values": [{"measurement": "EC50", "result": 0.56, "unit": "nM"}, {"measurement": "ERalpha (WT) MCF7 HCS (S inf)", "result": "−95", "unit": "%"}]}
{"smiles": "C[C@H](CN1CCc2cc(O)ccc2[C@]1(C)c1ccc(OCCN2CC(CF)C2)cc1)C(=O)O", "note": "[Example 138, (R)-3-((S)-1-(4-(2-(3-(fluoromethyl)azetidin-1-yl)ethoxy)phenyl)-6-hydroxy-1-methyl-3,4-dihydroisoquinolin-2(1H)-yl)-2-methylpropanoic acid]", "values": [{"measurement": "EC50", "result": "≥ 100", "unit": "nM"}]}
{"smiles": "NC(=O)c1ccc2c(c1)CCN(CC(F)(F)F)[C@H]2c1ccc(OCCN2CC(CF)C2)cc1", "note": "[Example 141, (1S)-1-[4-[2-[3-(fluoromethyl)azetidin-1-yl]ethoxy]phenyl]-2-(2,2,2-trifluoroethyl)-3,4-dihydro-1H-isoquinoline-6-carboxamide]", "values": [{"measurement": "EC50", "result": "≥ 100", "unit": "nM"}]}
{"smiles": "C[C@H](CN1CCc2cc(O)ccc2[C@@]1(C)c1ccc(OCCN2CC(CF)C2)cc1)C(=O)O", "note": "[Example 137, (R)-3-((R)-1-(4-(2-(3-(fluoromethyl)azetidin-1-yl)ethoxy)phenyl)-6-hydroxy-1-methyl-3,4-dihydroisoquinolin-2(1H)-yl)-2-methylpropanoic acid]", "values": [{"measurement": "EC50", "result": 40, "unit": "nM"}, {"measurement": "ERalpha (WT) MCF7 HCS (S inf)", "result": "−45", "unit": "%"}]}
{"smiles": "CC(C)(F)CN1CCc2cc(O)ccc2[C@@]1(c1ccc(OCCN2CC(CF)C2)cc1)C(F)F", "note": "(single isomer, unassigned) [Example 127]", "values": [{"measurement": "EC50", "result": 22, "unit": "nM"}, {"measurement": "ERalpha (WT) MCF7 HCS (S inf)", "result": "−85", "unit": "%"}]}
{"smiles": "CC(=O)c1ccc2c(c1)C[C@H](C)N(CC(F)(F)CO)[C@H]2c1ccc(OCCN2CC(CF)C2)cc1", "note": "[Example 176, 1-((1S,3S)-2-(2,2-Difluoro-3-hydroxypropyl)-1-(4-(2-(3-(fluoromethyl)azetidin-1-yl)ethoxy)phenyl)-3-methyl-1,2,3,4-tetrahydroisoquinolin-6-yl)ethanone]", "values": [{"measurement": "EC50", "result": "> 100", "unit": "nM"}]}
{"smiles": "CC(C)(F)CN1CCc2cc(O)ccc2[C@]1(C)c1ccc(OCCN2CC(CF)C2)cc1", "note": "(single isomer, unassigned) [Example 107]", "values": [{"measurement": "EC50", "result": 3.22, "unit": "nM"}, {"measurement": "ERalpha (WT) MCF7 HCS (S inf)", "result": "−97", "unit": "%"}]}
{"smiles": "C[C@H]1Cc2c(ccc3[nH]ncc23)[C@H](c2c(F)cc(OCCN3CC(CF)C3)cc2F)N1CC(C)(C)F", "note": "(single isomer, unassigned) [Example 124]", "values": [{"measurement": "EC50", "result": 3.23, "unit": "nM"}, {"measurement": "ERalpha (WT) MCF7 HCS (S inf)", "result": "−90", "unit": "%"}]}
{"smiles": "Oc1ccc2c(c1)CCN(CC(F)(F)F)[C@H]2c1c(F)cc(OCCN2CC(CF)C2)cc1F", "note": "[Example 133, (1R)-1-[2,6-difluoro-4-[2-[3-(fluoromethyl)azetidin-1-yl]ethoxy]phenyl]-2-(2,2,2-trifluoroethyl)-3,4-dihydro-1H-isoquinolin-6-ol]", "values": [{"measurement": "EC50", "result": 17, "unit": "nM"}, {"measurement": "ERalpha (WT) MCF7 HCS (S inf)", "result": "−90", "unit": "%"}]}
{"smiles": "CC1(c2ccc(OCCN3CC(CF)C3)cc2)c2ccc(O)cc2CCN1S(C)(=O)=O", "note": "(stereo not drawn) [Example 111, 1-[4-[2-[3-(fluoromethyl)azetidin-1-yl]ethoxy]phenyl]-1-methyl-2-methylsulfonyl-3,4-dihydroisoquinolin-6-ol]", "values": [{"measurement": "EC50", "result": "≥ 100", "unit": "nM"}]}
{"smiles": "C[C@@H](CN1CCc2cc(O)ccc2[C@@]1(C)c1ccc(OCCN2CC(CF)C2)cc1)C(=O)O", "note": "[Example 136, (S)-3-((R)-1-(4-(2-(3-(fluoromethyl)azetidin-1-yl)ethoxy)phenyl)-6-hydroxy-1-methyl-3,4-dihydroisoquinolin-2(1H)-yl)-2-methylpropanoic acid]", "values": [{"measurement": "EC50", "result": "≥ 100", "unit": "nM"}]}
{"smiles": "C[C@H]1CN(S(C)(=O)=O)[C@@H](c2ccc(OCCN3CC(CF)C3)cc2)c2ccc(O)cc21", "note": "(single isomer, unassigned) [Example 118]", "values": [{"measurement": "EC50", "result": "≥ 100", "unit": "nM"}]}
{"smiles": "Oc1ccc2c(c1)CCCN(CC(F)(F)F)[C@@H]2c1ccc(OCCN2CC(CF)C2)cc1", "note": "(single isomer, unassigned) [Example 140]", "values": [{"measurement": "EC50", "result": 0.05, "unit": "nM"}, {"measurement": "ERalpha (WT) MCF7 HCS (S inf)", "result": "−96.6", "unit": "%"}]}
{"smiles": "C[C@H]1Cc2cc(S(N)(=O)=O)ccc2[C@H](c2ccc(OCCN3CC(CF)C3)cc2)N1CC(F)(F)CO", "note": "(single isomer, unassigned) [Example 174]", "values": [{"measurement": "EC50", "result": 63, "unit": "nM"}, {"measurement": "ERalpha (WT) MCF7 HCS (S inf)", "result": "−50", "unit": "%"}]}
{"smiles": "FCC1CN(CCOc2ccc([C@H]3c4ccc(-c5cn[nH]c5)cc4CCN3CC(F)(F)F)cc2)C1", "note": "[Example 145, (1S)-1-[4-[2-[3-(fluoromethyl)azetidin-1-yl]ethoxy]phenyl]-6-(1H-pyrazol-4-yl)-2-(2,2,2-trifluoroethyl)-3,4-dihydro-1H-isoquinoline]", "values": [{"measurement": "EC50", "result": "≥ 100", "unit": "nM"}, {"measurement": "ERalpha (WT) MCF7 HCS (S inf)", "result": "−100", "unit": "%"}]}
{"smiles": "FCC1CN(CCOc2ccc([C@@H]3c4ccc(N5CCOCC5)cc4CCN3CC(F)(F)F)cc2)C1", "note": "[Example 148, 4-[(1R)-1-[4-[2-[3-(fluoromethyl)azetidin-1-yl]ethoxy]phenyl]-2-(2,2,2-trifluoroethyl)-3,4-dihydro-1H-isoquinolin-6-yl]morpholine]", "values": [{"measurement": "EC50", "result": 12, "unit": "nM"}, {"measurement": "ERalpha (WT) MCF7 HCS (S inf)", "result": "−89", "unit": "%"}]}
{"smiles": "C[C@@]1(c2ccc(OCCN3CC(CF)C3)cc2)c2ccc(O)cc2CCN1CC(F)(F)CO", "note": "[Example 130, (R)-2-(2,2-difluoro-3-hydroxypropyl)-1-(4-(2-(3-(fluoromethyl)azetidin-1-yl)ethoxy)phenyl)-1-methyl-1,2,3,4-tetrahydroisoquinolin-6-ol]", "values": [{"measurement": "EC50", "result": 0.042, "unit": "nM"}, {"measurement": "ERalpha (WT) MCF7 HCS (S inf)", "result": "−101", "unit": "%"}]}
